Where “and” joins values, the source holds several entries; their conditions need not be identical. Identical values can stand only once. Like-named read-outs stand apart in the source and are kept apart here.
Tests used:
Candida albicans = assay: Lymphocyte mediated antifungal activity against Candida albicans (growth inhibition), lymphocytes from HIV+ patients; format: cell-based; details: for mean change in antifungal activity: 50 ng/ml d-FEN vs no d-FEN; for Antifungal Units, d-FEN: one line per patient and Mean + SEM
Text: (§1) The T lymphocytes analyzed were obtained from 20 HIV+ patients (9 females and 11 males, 25-48 years of age). The patients were diagnosed as being HIV+ within the past 0.5-9 years, and 15 are being treated with antiviral drugs. The subjects' study identification number (indicates the order in which bloods were drawn), CD4+ and CD8+ counts (determined March, 1996, as part of the present study), age, sex, date of diagnosis, and pharmacotherapy are provided in Table 1.
The patients fell into one of three groups (Groups A, B and C) based on their CD4+ cell counts (the number of T helper cells/μL blood): 8 of the HIV+ patients had normal (or above normal) CD4+ levels (normal range 550-1500/μL); 4 had levels between 200-499/μL; and, 7 had CD4+ counts equal to or below 200/μL. This latter group of patients by definition have AIDS (see Table 41-3 from K. J. Ryan (Ed.), Sherris Medical Microbiology, Third Edition, Appleton & Lange:Norwalk, Conn., 1994, p. 547). These patients, moreover, have had recurrent candidiasis and other opportunistic infections which have become increasingly difficult to manage. All of the patients' CD8+ cell (cytotoxic T lymphocytes) counts were within or above normal range (300-1000/μL). We were unable to obtain enough lymphocytes from one patient (#4) to analyze their antifungal activity.
(§2) The experimental protocol for this project is illustrated in Table A. Note that the cultures were exposed to two doses (5 and 50 ng/ml) of d-FEN in the mitogenesis assays, whereas only one dose (50 ng/ml) was used in the antifungal and cytokine release assays.
Isolation of Peripheral Blood Mononuclear Cells. Forty ml of venous blood were aseptically drawn into sterile 10 ml tubes containing 20 U/ml preservative free heparin, diluted with an equal volume of Hank's Balanced Salt Solution (HBSS), layered over Lymphocyte Separation Medium (LSM, Bionetics, Kensington, Md.), and centrifuged at 1,000×g for 30 min. After centrifugation, the mononuclear cell layer was recovered from the interface and washed twice in HBSS prior to further manipulation and then enumerated microscopically.
Lymphocyte Mediated Antifungal Activity Against Candida albicans: Fungal Culture. C. albicans cultures were stored at 25° C. on Sabouraud's dextrose agar (SDA) (Becton Dickinson and Co., Cockeysville, Md.). Cells used for experimentation were cultured overnight at 37° C. on SDA, collected as isolated colonies, and washed once in HBSS. Yeast cultures were enumerated microscopically. C. albicans were inoculated into RPMI 1640 medium. C. albicans hyphal forms were obtained by incubation at 37° C. with 5% CO2 in RPMI 1640. Inoculum of 2×10^5 yeast cells/ml yield approximately 100% hyphal fragments when incubated for 2 h at 37° C.
Activation of Lymphocytes. Human peripheral blood lymphocytes were placed in culture medium containing 5×10^-5 2-mercaptoethanol (2-ME) at a concentration of 2.0×10^6 cells/ml with d-FEN (50 ng/ml was added on the second day of culture) and 1,500 U/ml IL-2 (Hoffman-La Roche Inc., Nutley, N.J.) in Falcon, Multiwell plates (Becton Dickinson, Lincoln Park, N.J.) for 3 and 4 days. The cells were harvested following incubation at 37° C., overlaid onto LSM and centrifuged at 1,000×g for 20 min. The cells at the interface were washed twice with HBSS prior to assessment of functional activity.
Measurement of the Inhibition of C. albicans Growth. Fungal cells used for experimentation were collected from isolated, overnight colonies on SDA, and washed once in HBSS. Yeast were resuspended to 2×10^5 /ml in RPMI 1640 and 5×10^3 yeast placed in individual wells of 96 well flat bottom plates (Corning Glass Works, #25861, Corning, N.Y.). […]

[1] = system: INF-γ in CD4+ (CD8-) T cells; assay: INF-γ production by CD4+ (CD8-) T cells, flow cytometry; format: cell-based, human; details: for % Positive Cells (INF-γ immunopositive), d-FEN / INF-γ Titer, d-FEN: CD4+ (CD8-) T cells, Mean ± SEM; for activation at 0.05 µg/mL: Homo sapiens, T-cell
Text: as §1, §2
Cytokine Profiles. Peripheral mononuclear cells were isolated by the Ficoll-Hypaque method and washed twice with RPMI-1640 medium. Cell suspensions were made at 1×10^6 /ml and the cells activated with interleukin-2 (IL-2) for 18 h or 4 days at 37° C. under 5% CO^2 +95% air. Monensin (1 nM) then was added to the culture to block secretion of cytokines, and the cultures allowed to continue for another 3 h. The cells were washed twice with PBS+1% fetal calf serum (FCS) with 0.1% saponin+0.1% sodium azide, then washed once with PBS-1% FCS and stained with anti-cytokine MAb-FL conjugate for 30 min. Following two washes, the cells were analyzed by flow cytometry for production of IL-2, IFN-γ and TNF-α. The MAbs-FL conjugates were obtained from Pharmingen (San Diego, Calif.). Potential effects of on cytokine production were evaluated (a) as increases in the percentage of a T cell subset which produce the respective cytokine; and, (b) as increases in the amount of cytokine produced by each subset. The latter were analyzed as a shift of the cytokine histograms.
The data were analyzed by a one- or two-way analysis of variance (ANOVA) with repeated measures where appropriate ([…] version 1; Jandel, San Rafael, Calif.). Significant main effects were subjected to post hoc analysis using the Student-Newman Keuls All Pairwise Multiple Comparisons test or the Mann-Whitney U test.

## CCN[C@@H](C)Cc1cccc(C(F)(F)F)c1 [d-FEN]
Candida albicans; Group B
  mean change in antifungal activity: -13%
Candida albicans; Group C (AIDS)
  mean change in antifungal activity: +100%
Candida albicans; 50 ng/ml d-FEN, Group A
  patients showing increased antifungal activity: 7 of the 8
Candida albicans; 50 ng/ml d-FEN, Group A (normal CD4+ HIV+ patients)
  Antifungal Units, d-FEN: 62 Antifungal Units and 84 Antifungal Units and 82 Antifungal Units and 144 Antifungal Units and 31 Antifungal Units and 60 Antifungal Units and 236 Antifungal Units and 95 ± 23 Antifungal Units
Candida albicans; 50 ng/ml d-FEN, Group B
  antifungal activity response in words: mixed response
Candida albicans; 50 ng/ml d-FEN, Group B (CD4+ 200-499/μL)
  Antifungal Units, d-FEN: 16 Antifungal Units and 164 Antifungal Units and 120 Antifungal Units and 75 Antifungal Units and 94 ± 32 Antifungal Units
Candida albicans; 50 ng/ml d-FEN, Group C (AIDS)
  patients showing increased antifungal activity: all 7 of the AIDS patients (Group C) evidenced increased
  Antifungal Units, d-FEN: 130 Antifungal Units and 321 Antifungal Units and 164 Antifungal Units and 355 Antifungal Units and 307 Antifungal Units and 314 Antifungal Units and 394 Antifungal Units and 284 ± 37 Antifungal Units
Candida albicans; 50 ng/ml d-FEN, one-way ANOVA p<0.001
  antifungal activity of Group C vs other two groups: significantly greater in the presence of d-FEN
[1]; 50 ng/ml, AIDS
  % Positive Cells (INF-γ immunopositive), d-FEN: 18 ± 2%
  INF-γ Titer, d-FEN: 336 ± 45 geometric mean channel fluorescence
[1]; 50 ng/ml, non-AIDS HIV+
  % Positive Cells (INF-γ immunopositive), d-FEN: 16 ± 2%
  INF-γ Titer, d-FEN: 473 ± 37 geometric mean channel fluorescence
[1]; 50 ng/ml, CD4+ T cells
  effect on INF-γ levels in words: did not have any significant effect
[1]; read-out: percent increase over VEH (printed under Titer, d-FEN), 50 ng/ml, CD4+ T cells, AIDS
  activation at 0.05 µg/mL: 38%
[1]; read-out: percent increase over VEH (printed under Titer, d-FEN), 50 ng/ml, CD4+ T cells, non-AIDS
  activation at 0.05 µg/mL: 33%
[1]; 50 ng/ml, CD4+ T cells, all patients, p=0.007, read-out: increase in the percent of INF-γ immunopositive T cells
  activation at 0.05 µg/mL: 33 to 38%

Source: patent US5955508A, “Method for the enhancement of lymphocyte activity against opportunistic microbial pathogens” (priority 1996, dated 1999)
